One block for each compound: values may come before it.
Columns and labels:
GIPR = biological target: T1, GIPR (Homo sapiens, UniProt P48546); assay: Schild analysis of FFA release in hMADS with GIPR antagonist; type: cell-based
T1 sequence (P48546 22-466): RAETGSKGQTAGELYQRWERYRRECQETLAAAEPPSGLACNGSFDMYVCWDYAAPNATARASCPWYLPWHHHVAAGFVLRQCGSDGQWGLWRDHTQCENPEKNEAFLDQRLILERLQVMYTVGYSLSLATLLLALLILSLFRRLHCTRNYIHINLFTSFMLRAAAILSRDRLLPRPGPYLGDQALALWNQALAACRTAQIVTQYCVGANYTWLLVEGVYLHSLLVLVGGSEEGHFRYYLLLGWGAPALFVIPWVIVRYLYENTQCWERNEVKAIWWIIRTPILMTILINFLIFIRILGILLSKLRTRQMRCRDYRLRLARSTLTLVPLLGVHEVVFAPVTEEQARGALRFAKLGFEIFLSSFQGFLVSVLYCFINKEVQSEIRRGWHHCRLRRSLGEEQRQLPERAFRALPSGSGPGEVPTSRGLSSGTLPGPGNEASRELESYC

hMADS cells = assay: mRNA expression by RT-qPCR in hMADS; type: cell-based, human; details: in the presence of 10 nM insulin, 24 h
white hMADS cells = assay: Lipolysis assay; type: cell-based, human; details: for FFA release after pretreatment with adenylyl cyclase inhibitor SQ22536: white hMADS
[1] = healthy individuals, degradation by dipeptidyl peptidase 4; cited from earlier work
[2] = biological target: human insulin receptor/ CD220 (28-944) protein (Homo sapiens, UniProt P06213); assay: Surface plasmon resonance, immobilised biotinylated peptide, INSR injected; type: binding; details: biotinylated peptide on Sensor Chip SA
Sequence of human insulin receptor/ CD220 (28-944) protein (P06213 28-944 isoform P06213-2): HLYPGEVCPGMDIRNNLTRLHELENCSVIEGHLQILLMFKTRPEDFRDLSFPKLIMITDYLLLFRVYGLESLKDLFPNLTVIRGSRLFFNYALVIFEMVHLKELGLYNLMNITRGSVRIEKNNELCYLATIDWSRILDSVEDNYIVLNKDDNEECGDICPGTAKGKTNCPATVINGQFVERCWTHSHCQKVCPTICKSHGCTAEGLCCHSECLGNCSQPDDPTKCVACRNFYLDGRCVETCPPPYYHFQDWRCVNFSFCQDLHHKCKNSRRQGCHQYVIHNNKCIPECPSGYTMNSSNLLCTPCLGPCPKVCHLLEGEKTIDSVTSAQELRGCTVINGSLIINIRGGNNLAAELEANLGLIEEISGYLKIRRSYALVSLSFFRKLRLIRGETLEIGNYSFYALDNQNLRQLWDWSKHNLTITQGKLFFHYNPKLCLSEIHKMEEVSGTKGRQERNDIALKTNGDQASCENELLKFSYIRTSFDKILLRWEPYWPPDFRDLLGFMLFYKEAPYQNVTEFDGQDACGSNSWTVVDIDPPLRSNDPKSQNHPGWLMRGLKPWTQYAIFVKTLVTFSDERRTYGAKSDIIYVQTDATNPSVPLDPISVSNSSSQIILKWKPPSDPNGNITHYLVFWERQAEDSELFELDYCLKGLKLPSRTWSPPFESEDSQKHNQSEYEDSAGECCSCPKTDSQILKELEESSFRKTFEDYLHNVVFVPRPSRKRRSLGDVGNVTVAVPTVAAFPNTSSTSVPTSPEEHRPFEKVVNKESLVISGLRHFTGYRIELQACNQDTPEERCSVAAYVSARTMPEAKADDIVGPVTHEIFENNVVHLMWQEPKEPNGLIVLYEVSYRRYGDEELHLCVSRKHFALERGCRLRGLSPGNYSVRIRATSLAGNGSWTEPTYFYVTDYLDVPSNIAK

Compound: COc1cc([C@@H]2c3cc4c(cc3[C@H](O)[C@H]3COC(=O)[C@@H]23)OCO4)cc(OC)c1OC [PPP, Picropodophyllin]
expression of FASN (hMADS cells): significantly lower

Compound: CC(C)NCC(O)c1ccc(O)c(O)c1 (centres unmarked) [isoprenaline]
FFA release after pretreatment with adenylyl cyclase inhibitor SQ22536 (white hMADS cells): inhibited

Compound: brain natriuretic peptide [BNP]
FFA release after pretreatment with adenylyl cyclase inhibitor SQ22536 (white hMADS cells): remains unaffected

Continued, in another order:

effect on lipolysis induced by 1 µM isoprenaline (GIPR): remains unchanged
Compound: CCCCCCCCCCCCCCCC(=O)N[C@@H](CCC(=O)NCCCC[C@H](NC(=O)[C@H](Cc1ccc(O)cc1)NC(=O)[C@H](CC(=O)O)NC(=O)[C@H](CO)NC(=O)[C@@H](NC(=O)[C@H](Cc1ccccc1)NC(=O)[C@@H](NC(C)=O)[C@@H](C)O)[C@@H](C)CC)C(=O)N[C@H](C(=O)N[C@@H](C)C(=O)N[C@@H](CC(C)C)C(=O)N[C@@H](CC(=O)O)C(=O)N[C@@H](CCCCN)C(=O)N[C@H](C(=O)N[C@@H](CCCNC(=N)N)C(=O)N[C@@H](CCC(N)=O)C(=O)N[C@@H](CCC(N)=O)C(=O)N[C@@H](CCC(=O)O)C(=O)N[C@@H](Cc1ccccc1)C(=O)N[C@H](C(=O)N[C@@H](CC(N)=O)C(=O)N[C@@H](Cc1c[nH]c2ccccc12)C(=O)N[C@@H](CC(C)C)C(=O)N[C@@H](CC(C)C)C(=O)N[C@@H](C)C(=O)N[C@@H](CCC(N)=O)C(=O)N[C@@H](CCCCN)C(=O)NCC(N)=O)C(C)C)[C@@H](C)CC)[C@@H](C)CC)C(=O)O [GIPR antagonist]

EC50 (white hMADS cells; read-out: EC50, FFA release read-out, hMADS cells): 1.1 nM
Compound: CC[C@H](C)[C@H](NC(=O)[C@H](CO)NC(=O)[C@H](Cc1ccc(O)cc1)NC(=O)[C@H](CC(=O)O)NC(=O)[C@H](CO)NC(=O)[C@@H](NC(=O)[C@H](Cc1ccccc1)NC(=O)[C@@H](NC(=O)CNC(=O)[C@H](CCC(=O)O)NC(=O)[C@H](C)NC(=O)[C@@H](N)Cc1ccc(O)cc1)[C@@H](C)O)[C@@H](C)CC)C(=O)N[C@@H](C)C(=O)N[C@@H](CCSC)C(=O)N[C@@H](CC(=O)O)C(=O)N[C@@H](CCCCN)C(=O)N[C@H](C(=O)N[C@@H](Cc1c[nH]cn1)C(=O)N[C@@H](CCC(N)=O)C(=O)N[C@@H](CCC(N)=O)C(=O)N[C@@H](CC(=O)O)C(=O)N[C@@H](Cc1ccccc1)C(=O)N[C@H](C(=O)N[C@@H](CC(N)=O)C(=O)N[C@@H](Cc1c[nH]c2ccccc12)C(=O)N[C@@H](CC(C)C)C(=O)N[C@@H](CC(C)C)C(=O)N[C@@H](C)C(=O)N[C@@H](CCC(N)=O)C(=O)N[C@@H](CCCCN)C(=O)NCC(=O)N[C@@H](CCCCN)C(=O)N[C@@H](CCCCN)C(=O)N[C@@H](CC(N)=O)C(=O)N[C@@H](CC(=O)O)C(=O)N[C@@H](Cc1c[nH]c2ccccc12)C(=O)N[C@@H](CCCCN)C(=O)N[C@@H](Cc1c[nH]cn1)C(=O)N[C@@H](CC(N)=O)C(=O)N[C@H](C(=O)N[C@H](C(=O)N[C@@H](CCC(N)=O)C(=O)O)[C@@H](C)O)[C@@H](C)CC)C(C)C)[C@@H](C)CC [hGIP]
FFA release in hMADS treated with GIPR siRNA vs siNC (white hMADS cells; GIPR knockdown approximately 40%): significantly reduced
half-life [1]: approximately 7 minutes

binding of insulin receptor to immobilised peptide [2]: does not exhibit binding
Compound: Ac-PKMVPQFNTELKIFPEVNIK-NH2 [SP34]
